Assay results reported in the NIST ThermoML archive (doi:10.1021/je8003782).

Assay: xn = mol fraction of the nth substance listed
Conditions: 101 kPa, Liquid

C1N2CN3CN1CN(C2)C3 [1,3,5,7-tetraazaadamantane] + CC(=O)O
Conditions	mass density [kg/m3]	viscosity [mPa·s]
293.15 K, x1 = 0.0201	1058.6	1.497
293.15 K, x1 = 0.0401	1066.7	1.865
293.15 K, x1 = 0.06	1075.67	2.363
293.15 K, x1 = 0.0801	1085.77	3.021
293.15 K, x1 = 0.1	1091.87	3.841
293.15 K, x1 = 0.1201	1100.76	4.951
293.15 K, x1 = 0.15	1111.19	7.154
298.15 K, x1 = 0.0201	1052.66	1.367
298.15 K, x1 = 0.0401	1061.41	1.682
298.15 K, x1 = 0.06	1070.38	2.106
298.15 K, x1 = 0.0801	1080.66	2.655
298.15 K, x1 = 0.1	1086.54	3.333
298.15 K, x1 = 0.1201	1095.79	4.254
298.15 K, x1 = 0.15	1106.18	5.988
303.15 K, x1 = 0.0201	1046.65	1.248
303.15 K, x1 = 0.0401	1055.87	1.523
303.15 K, x1 = 0.06	1065.17	1.893
303.15 K, x1 = 0.0801	1075.44	2.355
303.15 K, x1 = 0.1	1081.61	2.919
303.15 K, x1 = 0.1201	1090.8	3.657
303.15 K, x1 = 0.15	1101.14	5.085
308.15 K, x1 = 0.0201	1042.8	1.148
308.15 K, x1 = 0.0401	1050.6	1.383
308.15 K, x1 = 0.06	1059.92	1.703
308.15 K, x1 = 0.0801	1068.93	2.091
308.15 K, x1 = 0.1	1076.58	2.565
308.15 K, x1 = 0.1201	1086.04	3.179
308.15 K, x1 = 0.15	1096.34	4.368
313.15 K, x1 = 0.0201	1036.2	1.059
313.15 K, x1 = 0.0401	1045.66	1.268
313.15 K, x1 = 0.06	1055.02	1.549
313.15 K, x1 = 0.0801	1063.52	1.879
313.15 K, x1 = 0.1	1071.68	2.296
313.15 K, x1 = 0.1201	1081.27	2.806
313.15 K, x1 = 0.15	1091.63	3.821
318.15 K, x1 = 0.0201	1030.1	0.992
318.15 K, x1 = 0.0401	1039.61	1.179
318.15 K, x1 = 0.06	1049.52	1.435
318.15 K, x1 = 0.0801	1057.74	1.719
318.15 K, x1 = 0.1	1065.6	2.073
318.15 K, x1 = 0.1201	1076.49	2.512
318.15 K, x1 = 0.15	1086	3.352
323.15 K, x1 = 0.0201	1024.35	0.909
323.15 K, x1 = 0.0401	1034.21	1.072
323.15 K, x1 = 0.06	1044.05	1.296
323.15 K, x1 = 0.0801	1052.4	1.541
323.15 K, x1 = 0.1	1060.71	1.842
323.15 K, x1 = 0.1201	1069.06	2.203
323.15 K, x1 = 0.15	1080.9	2.893
328.15 K, x1 = 0.0201	1019.23	0.845
328.15 K, x1 = 0.0401	1028.98	0.988
328.15 K, x1 = 0.06	1039.22	1.185
328.15 K, x1 = 0.0801	1047.33	1.395
328.15 K, x1 = 0.1	1055.72	1.657
328.15 K, x1 = 0.1201	1064	1.97
328.15 K, x1 = 0.15	1075.88	2.545
333.15 K, x1 = 0.0201	1014.76	0.79
333.15 K, x1 = 0.0401	1024.69	0.919
333.15 K, x1 = 0.06	1034.16	1.096
333.15 K, x1 = 0.0801	1043.04	1.279
333.15 K, x1 = 0.1	1051.63	1.515
333.15 K, x1 = 0.1201	1059.77	1.776
333.15 K, x1 = 0.15	1071.94	2.285

CC(=O)OC(C)=O [ethanoic anhydride] + CC(=O)O
Conditions	mass density [kg/m3]	viscosity [mPa·s]
293.15 K, x2 = 0	1080.89	0.888
293.15 K, x2 = 0.1	1079.28	0.905
293.15 K, x2 = 0.2	1077.19	0.92
293.15 K, x2 = 0.2999	1074.93	0.934
293.15 K, x2 = 0.3996	1072.42	0.954
293.15 K, x2 = 0.4999	1069.56	0.975
293.15 K, x2 = 0.5965	1066.68	1.004
293.15 K, x2 = 0.6992	1063.1	1.041
293.15 K, x2 = 0.8004	1059.19	1.084
293.15 K, x2 = 0.8976	1054.94	1.145
298.15 K, x2 = 0	1074.8	0.829
298.15 K, x2 = 0.1	1073.24	0.844
298.15 K, x2 = 0.2	1071.18	0.859
298.15 K, x2 = 0.2999	1068.96	0.872
298.15 K, x2 = 0.3996	1066.47	0.887
298.15 K, x2 = 0.4999	1063.66	0.908
298.15 K, x2 = 0.5965	1060.8	0.933
298.15 K, x2 = 0.6992	1057.27	0.966
298.15 K, x2 = 0.8004	1053.41	1.008
298.15 K, x2 = 0.8976	1049.21	1.057
303.15 K, x2 = 0	1068.7	0.778
303.15 K, x2 = 0.1	1067.18	0.793
303.15 K, x2 = 0.2	1065.17	0.805
303.15 K, x2 = 0.2999	1062.98	0.819
303.15 K, x2 = 0.3996	1060.53	0.831
303.15 K, x2 = 0.4999	1057.75	0.849
303.15 K, x2 = 0.5965	1054.93	0.874
303.15 K, x2 = 0.6992	1051.45	0.903
303.15 K, x2 = 0.8004	1047.64	0.936
303.15 K, x2 = 0.8976	1043.48	0.985
308.15 K, x2 = 0	1062.61	0.729
308.15 K, x2 = 0.1	1061.12	0.742
308.15 K, x2 = 0.2	1059.15	0.754
308.15 K, x2 = 0.2999	1057	0.768
308.15 K, x2 = 0.3996	1054.57	0.777
308.15 K, x2 = 0.4999	1051.83	0.793
308.15 K, x2 = 0.5965	1049.05	0.814
308.15 K, x2 = 0.6992	1045.62	0.842
308.15 K, x2 = 0.8004	1041.85	0.873
308.15 K, x2 = 0.8976	1037.75	0.919
313.15 K, x2 = 0	1056.49	0.688
313.15 K, x2 = 0.1	1055.06	0.699
313.15 K, x2 = 0.2	1053.12	0.71
313.15 K, x2 = 0.2999	1051	0.721
313.15 K, x2 = 0.3996	1048.6	0.734
313.15 K, x2 = 0.4999	1045.9	0.748
313.15 K, x2 = 0.5965	1043.16	0.766
313.15 K, x2 = 0.6992	1039.78	0.791
313.15 K, x2 = 0.8004	1036.06	0.82
313.15 K, x2 = 0.8976	1032.01	0.86
318.15 K, x2 = 0	1050.38	0.648
318.15 K, x2 = 0.1	1048.96	0.659
318.15 K, x2 = 0.2	1047.07	0.666
318.15 K, x2 = 0.2999	1044.99	0.678
318.15 K, x2 = 0.3996	1042.62	0.688
318.15 K, x2 = 0.4999	1039.96	0.703
318.15 K, x2 = 0.5965	1037.26	0.721
318.15 K, x2 = 0.6992	1033.93	0.743
318.15 K, x2 = 0.8004	1030.27	0.77
318.15 K, x2 = 0.8976	1026.28	0.8
323.15 K, x2 = 0	1044.24	0.61
323.15 K, x2 = 0.1	1042.87	0.621
323.15 K, x2 = 0.2	1041.01	0.627
323.15 K, x2 = 0.2999	1038.96	0.638
323.15 K, x2 = 0.3996	1036.63	0.649
323.15 K, x2 = 0.4999	1034.01	0.661
323.15 K, x2 = 0.5965	1031.34	0.676
323.15 K, x2 = 0.6992	1028.06	0.699
323.15 K, x2 = 0.8004	1024.46	0.723
323.15 K, x2 = 0.8976	1020.54	0.751
328.15 K, x2 = 0	1038.07	0.58
328.15 K, x2 = 0.1	1036.74	0.587
328.15 K, x2 = 0.2	1034.94	0.595
328.15 K, x2 = 0.2999	1032.91	0.603
328.15 K, x2 = 0.3996	1030.61	0.614
328.15 K, x2 = 0.4999	1028.04	0.625
328.15 K, x2 = 0.5965	1025.39	0.639
328.15 K, x2 = 0.6992	1022.18	0.66
328.15 K, x2 = 0.8004	1018.64	0.68
328.15 K, x2 = 0.8976	1014.79	0.708
333.15 K, x2 = 0	1031.9	0.548
333.15 K, x2 = 0.1	1030.63	0.556
333.15 K, x2 = 0.2	1028.83	0.562
333.15 K, x2 = 0.2999	1026.84	0.57
333.15 K, x2 = 0.3996	1024.57	0.58
333.15 K, x2 = 0.4999	1022.05	0.59
333.15 K, x2 = 0.5965	1019.44	0.605
333.15 K, x2 = 0.6992	1016.3	0.622
333.15 K, x2 = 0.8004	1012.82	0.64
333.15 K, x2 = 0.8976	1009.03	0.665
338.15 K, x2 = 0	1025.7	0.521
338.15 K, x2 = 0.1	1024.48	0.53
338.15 K, x2 = 0.2	1022.71	0.533
338.15 K, x2 = 0.2999	1020.75	0.542
338.15 K, x2 = 0.3996	1018.52	0.551
338.15 K, x2 = 0.4999	1016.04	0.558
338.15 K, x2 = 0.5965	1013.48	0.575
338.15 K, x2 = 0.6992	1010.39	0.59
338.15 K, x2 = 0.8004	1006.97	0.605
338.15 K, x2 = 0.8976	1003.24	0.629
